Test results published in patent publication US20040220084A1, “Methods for nucleic acid delivery” (priority 2003, published 2004).

What was measured:
JJ5 Breast Cancer cells [1] = experiment: Growth inhibition assay against JJ5 breast cancer cells; format: cell-based, human; settings: 4 days culture
Protocol: JJ5 breast cancer cells (prepared from BCBM JJ5) expressing approximately 10^6 epidermal growth factor receptors/cell were incubated with EGF-^111In-labeled transferrin composition, unlabeled hEGF or ^111In-oxine, centrifuged to remove free ligand, then assayed and seeded (10^6 cells/dish) into 35 mm culture dishes. Growth medium was added and the cells were cultured at 37° C./5% CO^2 for 4 days. The cells were then recovered by trypsinization and counted in a hemocytometer. Control dishes contained cells cultured in growth medium containing ^111In-DTPA or growth medium alone.

JJ5 Breast Cancer cells [2] = experiment: Cytotoxicity (colony-forming) assay against JJ5 breast cancer cells; format: cell-based, human; settings: 14 days
Protocol: JJ5 breast cancer cells were incubated with increasing amounts EGF-^111In-labeled transferrin composition or ^111In-oxine, centrifuged to remove free ligand, assayed and then seeded into 50 mm culture dishes. The number of cells seeded was varied from 3×10^4 to 3×10^6 cells to obtain approximately 400 viable colonies/dish taking into account the plating efficiency and the expected level of cytotoxicity. Control dishes contained JJ5 breast cancer cells which were incubated with normal saline. Growth medium was added and the cells were cultured at 37° C./5% CO^2 for 14 days. The growth medium was removed and the colonies were stained with methylene blue (1% in a 1:1 mixture of ethanol and water) then washed twice. The number of colonies per dish was counted using a manual colony counter (Manostat Corp). The plating efficiency was calculated by dividing the number of colonies observed by the number of cells seeded in each dish. The surviving fraction at increasing amounts of EGF-^111In-labeled transferrin composition or ^111In-oxine was calculated by dividing the plating efficiency for dishes containing treated cells with that observed for control dishes with normal saline.

JJ5 Breast Cancer cells [3] = experiment: Binding of EGF-111In-labeled transferrin composition to JJ5 breast cancer cells (radioligand binding, kinetics, internalization); design: species or system human
Protocol: For the normal breast cell line HBL-100, 8000 EGFR/cell has been reported. The expression of EGFR in breast cancer cell lines has a reported range of 800 EGFR/cell for MCF-7 cells to 10^6 EGFR/cell for MDA-MB-468 cells. […] Utilizing the Auger electron emitter ^111In was used in the initial experiments to illustrate the utility of the invention using EGF-111In-labeled transferrin compositions. The EGF-^111-In-labeled transferrin (0.25-80 ng) was incubated with 1.5×10^6 cells/dish JJ5 Breast Cancer (prepared from BCBM JJ5) cells in 1 mL of 0.1% human serum albumin in 35 mm multiwell culture dishes at 37° C. for 30 minutes. The cells were transferred to a centrifuge tube and centrifuged. The cell pellet was separated from the supernatant and counted in a g-scintillation counter to determine bound (B) and free (F) radioactivity. Non-specific binding was determined by conducting the assay in 100 nM hEGF. The kinetics of binding was determined by incubating 1 ng of EGF-^111In-labeled transferrin composition with 3×10^6 JJ5 Breast Cancer cells at 37° C. and determining the proportion of radioactivity bound to the cells at various times up to 24 hours. Internalized fraction was measured by determining the proportion of radioactivity which could not be displaced from the cell surface by 100 nM hEGF. Cell-associated binding (surface-binding and intracellular accumulation) was expressed as a percentage of medium radioactivity bound per mg of cell study protein.

Row | Compound | growth inhibition of the JJ5 cells (JJ5 Breast Cancer cells [1]; 3.5 pCi/cell) [%] | cell killing (JJ5 Breast Cancer cells [2]; <6 pCi/cell) | growth inhibition of the JJ5 cells compared to the medium control (JJ5 Breast Cancer cells [1]; 3.4 pCi/cell) [%] | reduction in cell survival for JJ5 cells (JJ5 Breast Cancer cells [2]; 8 pCi/cell) [%] | internalization by cancer cells (in words) (JJ5 Breast Cancer cells [3]; JJ5 cells) | binding by the breast cancer cells (kinetics, in words) (JJ5 Breast Cancer cells [3]; JJ5 cells, 37° C.) | retained by the breast cancer cells (JJ5 Breast Cancer cells [3]; JJ5 cells, 37° C.) | affinity constant for binding to JJ5 cells (JJ5 Breast Cancer cells [3]; JJ5 cells, 37° C., 30 minutes) [L/mol] | 111In radioactivity lost from the cells in vitro (JJ5 Breast Cancer cells [3]; over a 24 hour period at 37° C.) [%]
1 | [In+3].[O-]c1cccc2cccnc12.[O-]c1cccc2cccnc12.[O-]c1cccc2cccnc12 [^111In-oxine, reference compound] | 91 | greater than 99% | – | – | – | – | – | – | –
2 | EGF-^111In-labeled transferrin composition: human EGF linked to human transferrin radiolabeled with Auger electron emitter 111In at the iron-binding sites | – | – | 83 | 99 | rapidly internalized | rapidly bound | at least 24 hours | 8e+08 | < 8
